Measured values taken from ChEMBL document CHEMBL1147258, “Cytochalasins Z4, Z5, and Z6, three new 24-Oxa[14]cytochalasans produced by Phoma exigua var. heteromorpha” (J Nat Prod, 2003).
The source made the active and inactive calls. The calls are words filed in the database; no cut-off is given here.

Legend:
Solanum lycopersicum = assay: Herbicidal activity against tomato seedlings assessed as inhibition of rootlet elongation at 100 uM; format: functional
Artemia = assay: (§1) Toxicity in brine shrimp assessed as mortality of larvae at 100 uM; format: organism-based; details: in vivo, 100 µM
[1] = as §1; format: organism-based; details: artemia, in vivo; read-out: Activity

SMILES	Activity (Solanum lycopersicum)	Activity (Artemia)	mortality at 100 µM [1] [%]	inhibition at 100 µM (Solanum lycopersicum) [%]
C=C1[C@@H](C)[C@H]2[C@H](Cc3ccccc3O)NC(=O)[C@]23OC(=O)/C=C/[C@H](O)CCC[C@@H](C)C/C=C/[C@H]3[C@@H]1O [CYTOCHALASIN Z4]	inactive	Non-toxic	–	–
C=C1[C@@H](C)[C@H]2[C@H](Cc3ccc(O)cc3)NC(=O)[C@]23OC(=O)/C=C/[C@H](O)CCC[C@@H](C)C/C=C/[C@H]3[C@@H]1O [CYTOCHALASIN Z5]	inactive	–	21	–
C[C@H]1C/C=C/[C@H]2[C@@H]3O[C@]3(C)[C@@H](C)[C@H]3[C@H](Cc4ccccc4)NC(=O)[C@]32OC(=O)/C=C/CC(O)CC1 (stereo partly specified) [CYTOCHALASIN Z6]	–	Non-toxic	–	30
